# In US8143259B2, “Cold menthol receptor antagonists” (Janssen Pharmaceutica, NV, priority 2008, dated 2012):
# Target: T1, canine TRPM8 (Canis lupus familiaris, UniProt Q1A7N1)
# T1 construct: expressed in transfected cells
# Test: In Vitro Canine TRPM8 Functional Assay (Ca2+ fluorescence, icilin activation)
# Type: cell-based
# Conditions: for inhibition at 0.5 µM: HEK293, 0.5 μM compound; for inhibition at 0.5 µM / inhibition at 0.2 µM / % Inh @ 0.2 μM: canine TRPM8 HEK293, icilin; for IC50: HEK293 cells stably expressing canine TRPM8, icilin activation, Ca2+ fluorescence; for inhibition at 0.2 µM: HEK293, 0.2 μM compound; for % Inh @ 0.2 μM: 0.2 μM compound
# How it was run: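 HEK293 cells stably expressing canine TRPM8, loaded with Calcium 3 dye; compounds added 5 min before icilin at a concentration giving ~80% maximal response. Peak icilin-evoked Ca2+ fluorescence, basal-subtracted and normalised to maximal response, fitted by sigmoidal nonlinear regression; quadruplicate wells.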
# T1 sequence (Q1A7N1 1-1104): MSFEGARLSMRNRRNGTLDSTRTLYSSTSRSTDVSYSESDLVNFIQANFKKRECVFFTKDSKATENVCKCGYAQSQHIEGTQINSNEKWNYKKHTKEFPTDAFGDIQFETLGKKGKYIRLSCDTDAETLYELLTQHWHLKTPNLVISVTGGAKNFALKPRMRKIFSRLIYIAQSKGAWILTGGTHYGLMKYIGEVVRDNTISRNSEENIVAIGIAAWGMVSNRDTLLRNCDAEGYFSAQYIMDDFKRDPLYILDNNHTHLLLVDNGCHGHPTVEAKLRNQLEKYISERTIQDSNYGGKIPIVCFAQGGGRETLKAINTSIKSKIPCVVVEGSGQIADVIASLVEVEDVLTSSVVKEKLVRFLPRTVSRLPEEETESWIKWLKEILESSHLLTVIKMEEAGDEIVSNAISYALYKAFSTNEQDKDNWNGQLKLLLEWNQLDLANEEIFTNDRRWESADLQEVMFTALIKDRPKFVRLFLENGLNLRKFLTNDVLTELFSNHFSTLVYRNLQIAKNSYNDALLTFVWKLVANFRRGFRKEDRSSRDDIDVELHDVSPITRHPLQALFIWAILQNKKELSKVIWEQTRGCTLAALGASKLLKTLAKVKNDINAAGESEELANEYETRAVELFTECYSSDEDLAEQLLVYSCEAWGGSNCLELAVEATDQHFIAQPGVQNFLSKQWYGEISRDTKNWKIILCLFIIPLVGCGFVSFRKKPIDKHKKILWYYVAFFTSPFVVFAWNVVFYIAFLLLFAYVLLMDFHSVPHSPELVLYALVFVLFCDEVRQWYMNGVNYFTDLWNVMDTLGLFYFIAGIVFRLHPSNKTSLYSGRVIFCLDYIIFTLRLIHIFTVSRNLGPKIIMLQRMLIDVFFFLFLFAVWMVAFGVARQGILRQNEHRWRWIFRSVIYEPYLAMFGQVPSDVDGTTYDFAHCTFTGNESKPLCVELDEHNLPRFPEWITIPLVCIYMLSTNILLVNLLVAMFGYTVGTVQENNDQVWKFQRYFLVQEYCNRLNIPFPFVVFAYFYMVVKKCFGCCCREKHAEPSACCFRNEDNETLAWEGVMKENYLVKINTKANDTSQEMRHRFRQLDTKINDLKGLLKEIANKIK
SMILES,inhibition at 0.5 µM,IC50,inhibition at 0.2 µM,% Inh @ 0.2 μM,% Inh @ 0.2 μM (0.2 µM)
COc1ccc(C(Nc2sccc2C#N)C(=O)N2CCCC2c2ccccc2Cl)cc1 (stereo not shown) [Cpd 105],88%,432 nM,,,
O=C(C(CNc1ccccc1F)c1ccc(C(F)(F)F)cc1)N1CCCC1c1ccccc1 (stereo not shown) [Cpd 108],88%,329 nM,,,
O=C(C(Nc1ccccc1F)c1ccc(Cl)cc1)N1CCCC1c1ccccc1Cl (stereo not shown) [Cpd 110],98%,55.4 nM,,,
O=C(C(Nc1ccccc1F)c1ccc(Cl)cc1)N1CCCC1c1ccccc1 (stereo not shown) [Cpd 112],96%,18.1 nM,,,
O=C(C(Nc1ccccc1F)c1ccc(Cl)cc1)N1CCCC1c1ccccc1F (stereo not shown) [Cpd 115],97%,10.1 nM,,,
O=C(C(Nc1ccc(F)cc1F)c1ccc(Cl)cc1)N1CCCC1c1ccccc1Cl (stereo not shown) [Cpd 122],96%,147 nM,,,
O=C(C(Nc1ccc(F)cc1F)c1ccc(Cl)cc1)N1CCCC1c1ccccc1F (stereo not shown) [Cpd 123],97%,101 nM,,,
O=C(C(Nc1ccccc1F)c1ccc(C(F)(F)F)cc1)N1CCCC1c1cccc(F)c1 (stereo not shown) [Cpd 132],99%,9 nM,,,
O=C(C(Nc1ccccc1F)c1ccc(C(F)(F)F)cc1)N1CCCC1c1ccc(F)cc1 (stereo not shown) [Cpd 135],100%,37.4 nM,,,
O=C(C(Nc1c(F)cccc1F)c1ccc(Cl)cc1)N1CCCC1c1ccccc1Cl (stereo not shown) [Cpd 143],101%,25 nM,,,
O=C(C(Nc1c(F)cccc1F)c1ccc(Cl)cc1)N1CCCC1c1ccccc1F (stereo not shown) [Cpd 144],102%,11 nM,,,
COc1ccccc1C1CCCN1C(=O)C(Nc1c(F)cccc1F)c1ccc(Cl)cc1 (stereo not shown) [Cpd 145],99%,16 nM,,,
O=C(C(Nc1c(F)cccc1F)c1ccc(Cl)cc1)N1CCCC1c1ccccc1 (stereo not shown) [Cpd 146],99%,12 nM,,,
COc1ccccc1C1CCCN1C(=O)C(Nc1ccccc1F)c1ccc(C(F)(F)F)cc1 (stereo not shown) [Cpd 148],99%,12 nM,,,
COc1ccccc1C1CCCN1C(=O)C(Nc1cccc(F)c1F)c1ccc(Cl)cc1 (stereo not shown) [Cpd 167],97%,34 nM,,,
O=C(C(Nc1cccc(F)c1F)c1ccc(Cl)cc1)N1CCCC1c1ccccc1 (stereo not shown) [Cpd 168],97%,35 nM,,,
O=C(C(Nc1cc(F)ccc1F)c1ccc(Cl)cc1)N1CCCC1c1ccccc1F (stereo not shown) [Cpd 170],,26.5 nM,100%,,
CN(C)c1ccc(C2CCCN2C(=O)C(Nc2ccccc2F)c2ccc(C(F)(F)F)cc2)cc1 (stereo not shown) [Cpd 178],,10 nM,100%,,

SMILES,inhibition at 0.5 µM,IC50,inhibition at 0.2 µM,% Inh @ 0.2 μM,% Inh @ 0.2 μM (0.2 µM)
Cc1c(C(Cc2ccccc2F)C(=O)N2Cc3ccccc3C2)sc2ccccc12 (stereo not shown) [Cpd 179],,38 nM,96%,,
O=C(C(Nc1c(F)cccc1F)c1ccc(Br)cc1)N1CCC[C@H]1c1ccccc1F (stereo partly shown) [Cpd 181],,5 nM,96%,,
"CCOC(=O)c1ccc(C(Nc2c(F)cccc2F)C(=O)N2CCC[C@H]2c2ccccc2F)cc1 (stereo partly drawn) [Cpd 183, 4-{1-(2,6-Difluoro-phenylamino)-2-[(2S)-2-(2-fluoro-phenyl)-pyrrolidin-1-yl]-2-oxo-ethyl}-benzoic acid ethyl ester]",,10 nM,99%,,
O=C(C(Nc1ccccc1F)c1ccc(C(F)(F)F)cc1)N1CCCC1c1ccccc1Cl (stereo not shown) [Cpd 188],,,,30%,
"O=C(N1CCCC1c1ccccc1)C1(c2ccc(C(F)(F)F)cc2)CCc2ccccc2N1 (stereo not shown) [Cpd 194, (2-Phenyl-pyrrolidin-1-yl)-[2-(4-trifluoromethyl-phenyl)-1,2,3,4-tetrahydro-quinolin-2-yl]-methanone]",,160 nM,70%,,
COC(=O)C1CCC(c2ccccc2)N1C(=O)C(Nc1ccccc1F)c1ccc(Br)cc1 (stereo not shown) [Cpd 195],,,,,32%
COC(=O)C1CCC(c2ccccc2)N1C(=O)C(Nc1ccccc1F)c1ccc(Br)cc1 (stereo not shown) [Cpd 196],,,,,41%
O=C(C(Nc1ccccc1F)c1ccc(C(F)(F)F)cc1)N1CCCC1c1ccncc1 (stereo not shown) [Cpd 197],,19 nM,97%,,
"CC(C)(O)c1ccccc1OC(C(=O)N1CCCC1c1ccccc1F)c1ccc(C(F)(F)F)cc1 (stereo not shown) [Cpd 199, 1-[2-(2-Fluoro-phenyl)-pyrrolidin-1-yl]-2-[2-(1-hydroxy-1-methyl-ethyl)-phenoxy]-2-(4-trifluoromethyl-phenyl)-ethanone]",,,62%,,
"O=C(C(Cc1ccccc1F)c1ccc(C(F)(F)F)cc1)N1CCCC1c1ccccc1F (stereo not shown) [Cpd 201, 3-(2-Fluoro-phenyl)-1-[2-(2-fluoro-phenyl)-pyrrolidin-1-yl]-2-(4-trifluoromethyl-phenyl)-propan-1-one]",,32 nM,99%,,
O=C(C(Nc1ccccc1F)c1ccc(C(F)(F)F)cc1)N1CCCC1c1ccccn1 (stereo not shown) [Cpd 202],,25 nM,100%,,
O=C(C(Nc1ccccc1F)c1ccc(C(F)(F)F)cc1)N1CCCC1c1cccnc1 (stereo not shown) [Cpd 203],,7 nM,102%,,
COC(=O)C1CCC(c2ccccc2)N1C(=O)C(Nc1ccccc1)c1ccc(Cl)cc1 (stereo not shown) [Cpd 207],,,,,47%
COC(=O)C1CCC(c2ccccc2)N1C(=O)C(Nc1c(F)cccc1F)c1ccc(Br)cc1 (stereo not shown) [Cpd 210],,7 nM,99%,,
COC(=O)C1CCC(c2ccccc2)N1C(=O)C(Nc1c(F)cccc1F)c1ccc(Br)cc1 (stereo not shown) [Cpd 211],,,,,69%
COC(=O)C1CCC(c2ccccc2)N1C(=O)C(Nc1ccccc1)c1ccc(Cl)cc1 (stereo not shown) [Cpd 213],,,,,63%
"O=C(C(Nc1ccccc1)c1cccnc1)N1CCCC1c1ccccc1F (stereo not shown) [Cpd 214, 1-[2-(2-Fluoro-phenyl)-pyrrolidin-1-yl]-2-phenylamino-2-pyridin-3-yl-ethanone]",,,58%,,

# Continued, values first:
inhibition at 0.5 µM,IC50,inhibition at 0.2 µM,% Inh @ 0.2 μM,% Inh @ 0.2 μM (0.2 µM),SMILES
98%,170 nM,,,,O=C(C(CNc1ccccc1F)c1ccc(C(F)(F)F)cc1)N1Cc2ccccc2C1 (stereo not shown) [Cpd 106]
96%,13 nM,,,,COc1ccccc1C1CCCN1C(=O)C(Nc1ccccc1F)c1ccc(Cl)cc1 (stereo not shown) [Cpd 111]
98%,61.7 nM,,,,O=C(C(Nc1ccccc1F)c1ccc(Cl)cc1)N1Cc2ccccc2C1 (stereo not shown) [Cpd 113]
98%,126 nM,,,,O=C(C(Nc1ccccc1F)c1ccc(Cl)cc1)N1Cc2cccc(F)c2C1 (stereo not shown) [Cpd 114]
98%,80.3 nM,,,,O=C(C(Nc1ccc(F)cc1)c1ccc(Cl)cc1)N1CCCC1c1ccccc1Cl (stereo not shown) [Cpd 116]
101%,47.5 nM,,,,O=C(C(Nc1ccc(F)cc1)c1ccc(Cl)cc1)N1CCCC1c1ccccc1F (stereo not shown) [Cpd 117]
100%,31.7 nM,,,,COc1ccccc1C1CCCN1C(=O)C(Nc1ccc(F)cc1)c1ccc(Cl)cc1 (stereo not shown) [Cpd 118]
100%,69.7 nM,,,,O=C(C(Nc1ccc(F)cc1)c1ccc(Cl)cc1)N1CCCC1c1ccccc1 (stereo not shown) [Cpd 119]
95%,130 nM,,,,O=C(C(Nc1ccc(F)cc1)c1ccc(Cl)cc1)N1Cc2ccccc2C1 (stereo not shown) [Cpd 120]
97%,125 nM,,,,O=C(C(Nc1ccc(F)cc1)c1ccc(Cl)cc1)N1Cc2cccc(F)c2C1 (stereo not shown) [Cpd 121]
98%,81.7 nM,,,,COc1ccccc1C1CCCN1C(=O)C(Nc1ccc(F)cc1F)c1ccc(Cl)cc1 (stereo not shown) [Cpd 124]
96%,62.3 nM,,,,O=C(C(Nc1ccc(F)cc1F)c1ccc(Cl)cc1)N1CCCC1c1ccccc1 (stereo not shown) [Cpd 125]
100%,111 nM,,,,O=C(C(Nc1ccc(F)cc1F)c1ccc(Cl)cc1)N1Cc2ccccc2C1 (stereo not shown) [Cpd 126]
97%,86.9 nM,,,,O=C(C(Nc1ccc(F)cc1F)c1ccc(Cl)cc1)N1Cc2cccc(F)c2C1 (stereo not shown) [Cpd 127]
90%,193 nM,,,,COc1ccc(NC(C(=O)N2CCCC2c2ccccc2Cl)c2ccc(Cl)cc2)cc1 (stereo not shown) [Cpd 136]
81%,101 nM,,,,COc1ccc(NC(C(=O)N2CCCC2c2ccccc2F)c2ccc(Cl)cc2)cc1 (stereo not shown) [Cpd 137]
95%,119 nM,,,,COc1ccc(NC(C(=O)N2CCCC2c2ccccc2OC)c2ccc(Cl)cc2)cc1 (stereo not shown) [Cpd 138]
81%,116 nM,,,,COc1ccc(NC(C(=O)N2CCCC2c2ccccc2)c2ccc(Cl)cc2)cc1 (stereo not shown) [Cpd 139]
97%,131 nM,,,,COc1ccc(NC(C(=O)N2Cc3ccccc3C2)c2ccc(Cl)cc2)cc1 (stereo not shown) [Cpd 140]
79%,188 nM,,,,COc1ccc(NC(C(=O)N2Cc3cccc(F)c3C2)c2ccc(Cl)cc2)cc1 (stereo not shown) [Cpd 141]
97%,18 nM,,,,O=C(C(Nc1ccccc1)c1ccc(Cl)cc1)N1CCCC1c1ccccc1F (stereo not shown) [Cpd 142]
93%,132 nM,,,,O=C(C(Nc1c(F)cccc1F)c1ccc(Cl)cc1)N1Cc2ccccc2C1 (stereo not shown) [Cpd 147]
92%,142 nM,,,,O=C(C(Nc1cccc(F)c1F)c1ccc(Cl)cc1)N1Cc2ccccc2C1 (stereo not shown) [Cpd 169]
,41.8 nM,98%,,,O=C(C(Nc1cc(F)ccc1F)c1ccc(Cl)cc1)N1CCCC1c1ccccc1Cl (stereo not shown) [Cpd 171]
,29.6 nM,102%,,,COc1ccccc1C1CCCN1C(=O)C(Nc1cc(F)ccc1F)c1ccc(Cl)cc1 (stereo not shown) [Cpd 172]
,35.6 nM,103%,,,O=C(C(Nc1cc(F)ccc1F)c1ccc(Cl)cc1)N1CCCC1c1ccccc1 (stereo not shown) [Cpd 173]
,45.2 nM,98%,,,O=C(C(Nc1cc(F)ccc1F)c1ccc(Cl)cc1)N1Cc2ccccc2C1 (stereo not shown) [Cpd 174]
,55 nM,89%,,,O=C(C(Cc1ccccc1F)c1ccc(C(F)(F)F)cc1)N1Cc2ccccc2C1 (stereo not shown) [Cpd 200]
